The assay deals with T1, F508del in NIH 3T3 cells (Homo sapiens, UniProt P13569, DEL508-508).
T1 construct: expressed in transfected cells
The experiment in a line: 3T3 assay: membrane potential optical assay for F508del correction. The class given is cell-based, mouse. Conditions: F508del NIH 3T3 cells; for Emax: NIH3T3, efficacy compared to lumacaftor in combination with acutely added 300 nM Ivacaftor, read-out: 3T3 Max Activity (%); for EC50: incubated with compound 18-24 hours at 37° C., forskolin activation. The text has this:
Membrane Potential Optical Methods for Assaying F508del Modulation Properties of Compounds The assay utilizes fluorescent voltage sensing dyes to measure changes in membrane potential using a fluorescent plate reader (e.g., FLIPR III, Molecular Devices, Inc.) as a readout for increase in functional F508del in NIH 3T3 cells. The driving force for the response is the creation of a chloride ion gradient in conjunction with channel activation by a single liquid addition step after the cells have previously been treated with compounds and subsequently loaded with a voltage sensing dye. 2. Identification of Corrector Compounds To identify correctors of F508del, a single-addition HTS assay format was developed. This HTS assay utilizes fluorescent voltage sensing dyes to measure changes in membrane potential on the FLIPR III as a measurement for increase in gating (conductance) of F508del in F508del NIH 3T3 cells. The F508del NIH 3T3 cell cultures were incubated with the corrector compounds at a range of concentrations for 18-24 hours at 37° C., and subsequently loaded with a redistribution dye. The driving force for the response is a Cl^− ion gradient in conjunction with channel activation with forskolin in a single liquid addition step using a fluorescent plate reader such as FLIPR III. […] Solutions […] Chloride-free bath solution: Chloride salts in Bath Solution #1 (above) are substituted with gluconate salts. 4. Cell Culture NIH3T3 mouse fibroblasts stably expressing F508del are used for optical measurements of membrane potential. The cells are maintained at 37° C. in 5% CO2 and 90% humidity in Dulbecco's modified Eagle's medium supplemented with 2 mM glutamine, 10% fetal bovine serum, 1×NEAA, b-ME, 1×pen/strep, and 25 mM HEPES in 175 cm^2 culture flasks. For all optical assays, the cells were seeded at ˜20,000/well in 384-well Matrigel-coated plates. For the correction assays, the cells are cultured at 37° C. with and without compounds for 16-24 hours.

Molecules are shown by their SMILES.

T1 sequence (P13569 with tags, fused parts or gaps DEL508-508): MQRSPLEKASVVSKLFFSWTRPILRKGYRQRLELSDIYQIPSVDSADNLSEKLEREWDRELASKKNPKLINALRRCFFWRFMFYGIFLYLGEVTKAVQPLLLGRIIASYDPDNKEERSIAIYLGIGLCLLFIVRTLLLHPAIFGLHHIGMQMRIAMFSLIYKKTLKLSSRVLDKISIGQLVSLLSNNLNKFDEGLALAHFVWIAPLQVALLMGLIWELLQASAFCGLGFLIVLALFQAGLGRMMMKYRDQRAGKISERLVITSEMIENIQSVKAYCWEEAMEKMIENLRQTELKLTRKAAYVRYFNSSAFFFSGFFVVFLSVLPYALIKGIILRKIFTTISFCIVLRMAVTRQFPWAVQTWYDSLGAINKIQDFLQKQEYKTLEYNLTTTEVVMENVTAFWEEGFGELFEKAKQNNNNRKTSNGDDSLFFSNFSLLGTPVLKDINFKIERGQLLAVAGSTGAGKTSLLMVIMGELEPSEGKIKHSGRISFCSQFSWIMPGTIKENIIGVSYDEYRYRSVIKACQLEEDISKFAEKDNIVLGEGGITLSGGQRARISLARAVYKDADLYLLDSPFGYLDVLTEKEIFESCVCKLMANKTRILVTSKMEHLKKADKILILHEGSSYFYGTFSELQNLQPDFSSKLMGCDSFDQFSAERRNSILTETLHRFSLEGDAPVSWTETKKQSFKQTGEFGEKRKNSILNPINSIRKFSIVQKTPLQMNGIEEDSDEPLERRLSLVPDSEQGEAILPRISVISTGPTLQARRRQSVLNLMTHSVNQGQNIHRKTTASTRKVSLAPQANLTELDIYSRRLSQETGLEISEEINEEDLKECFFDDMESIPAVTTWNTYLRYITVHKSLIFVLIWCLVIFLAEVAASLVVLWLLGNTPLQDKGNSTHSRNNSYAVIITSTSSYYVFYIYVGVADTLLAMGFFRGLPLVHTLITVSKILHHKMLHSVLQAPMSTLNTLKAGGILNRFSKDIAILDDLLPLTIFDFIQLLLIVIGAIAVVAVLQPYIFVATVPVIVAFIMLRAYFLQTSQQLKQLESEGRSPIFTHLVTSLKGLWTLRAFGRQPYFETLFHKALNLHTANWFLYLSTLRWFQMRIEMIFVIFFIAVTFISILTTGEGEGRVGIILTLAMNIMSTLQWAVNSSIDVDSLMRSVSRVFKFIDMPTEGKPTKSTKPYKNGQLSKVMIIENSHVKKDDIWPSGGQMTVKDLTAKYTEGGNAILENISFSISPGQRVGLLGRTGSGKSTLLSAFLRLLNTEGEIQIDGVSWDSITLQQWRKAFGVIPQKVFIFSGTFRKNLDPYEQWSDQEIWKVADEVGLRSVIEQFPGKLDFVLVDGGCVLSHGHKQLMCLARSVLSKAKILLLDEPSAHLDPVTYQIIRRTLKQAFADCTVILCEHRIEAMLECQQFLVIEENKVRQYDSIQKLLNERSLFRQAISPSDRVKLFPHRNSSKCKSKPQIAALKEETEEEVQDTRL

In the case of `Cc1cc(C)c(-n2nc(NS(=O)(=O)c3ccccc3Cl)c3ccc(C(C)(C)C)nc32)c(C)c1` [Compound 68], the Emax was less than 30%.
Still for that read-out and setting: with `Cc1cc(C)c(-n2nc3nc(C(C)(C)C)ccc3c2NS(=O)(=O)c2ccccc2)c(C)c1` [Compound 71] the figure was less than 30%.
On the same count and under the same terms, with `Cc1cc(C)c(-n2nc(NS(=O)(=O)c3ccccc3C)c3ccc(C(C)(C)C)nc32)c(C)c1` [Compound 69] the figure was less than 30%.
Same read-out and setting: with `CC1CCc2nc(NS(=O)(=O)c3ccccc3)sc2C1` (centres unmarked) [Compound 24] the figure was less than 30%; with `O=S(=O)(Nc1nc(Oc2ccccc2)nc2ccccc12)c1ccccc1` [Compound 16], less than 30%.
Turning to `O=S(=O)(Nc1nc2ccccc2nc1N1CCCCC1)c1ccccc1` [Compound 12, N-[3-(1-piperidyl)quinoxalin-2-yl]benzenesulfonamide], the EC50 – broadly, the concentration giving half of the maximal effect – lay in the range of 3000 to 30000 nM and the Emax fell in the range of 30 to 60%.
Turning to `O=S(=O)(Nc1nc(Oc2ccccc2)c2ccccc2n1)c1ccccc1` [Compound 31, N-(4-phenoxyquinazolin-2-yl)benzenesulfonamide], the EC50 fell in the range of 3000 to 30000 nM.
With `Cc1cc(C)c(-n2nc(NS(=O)(=O)c3cccc4c3OCCO4)c3ccc(C(C)(C)C)nc32)c(C)c1` [Compound 53], the EC50 is less than 1000 nM and the Emax lay within 30 to 60%.
As to `Cc1ccc(Oc2nc3ccccc3nc2NS(=O)(=O)c2ccccc2)c(C)c1` [Compound 14], the EC50 was in the range of 1000 to 3000 nM and the Emax lay in the range of 30 to 60%.
For `Cc1ccccc1-n1nc(NS(=O)(=O)c2ccccc2)c2ccc(Br)cc21` [Compound 70, N-[6-bromo-1-(o-tolyl)indazol-3-yl]benzenesulfonamide] the same measures were 1000 to 3000 nM and 30 to 60%.
With `CC(C)(C)C1CCc2nc(NS(=O)(=O)c3ccccc3)sc2C1` (centres unmarked) [Compound 25], the EC50 lay in the range of 1000 to 3000 nM and the Emax lay within 30 to 60%.
Turning to `Cc1cc(C)cc(-c2cc(NS(=O)(=O)c3ccccc3)nc3ccccc23)c1` [Compound 78, N-[4-(3,5-Dimethylphenyl)-2-quinolyl]benzenesulfonamide], the Emax is less than 30%.
As for `O=S(=O)(Nc1ccc2cc[nH]c2n1)c1ccccc1` [Compound 82], the Emax was less than 30%.
The same measure, in the same setting: with `CC(C)CCn1nc(NS(=O)(=O)c2ccccc2)c2ccc(C(C)(C)C)nc21` [Compound 41] the figure was less than 30%; with `COc1cc(OC)cc(S(=O)(=O)Nc2nn(-c3c(C)cc(C)cc3C)c3nc(C(C)(C)C)ccc23)c1` [Compound 57], less than 30%.
Consider `Cc1cc(C)c(-n2nc(NS(=O)(=O)c3cn[nH]c3)c3ccc(C(C)(C)C)nc32)c(C)c1` [Compound 35, N-[6-tert-butyl-1-(2,4,6-trimethylphenyl)pyrazolo[3,4-b]pyridin-3-yl]-1H-pyrazole-4-sulfonamide], for which the EC50 was 1000 to 3000 nM and the Emax was more than 60%.
For `Cc1cc(C)cc(-c2nc(NS(=O)(=O)c3ccccc3)cc3ccccc23)c1` [Compound 77, N-[1-(3,5-dimethylphenyl)-3-isoquinolyl]benzenesulfonamide], the EC50 is less than 1000 nM.
Regarding `Cc1cc(C)c(-n2nc(NS(=O)(=O)c3ccccc3)c3cccnc32)c(C)c1` [Compound 52], the Emax is 30 to 60%.
Turning to `Cc1cc(C)cc(-n2nc(NS(=O)(=O)c3ccccc3)c3cc(C(C)C)cnc32)c1` [Compound 46], the EC50 is less than 1000 nM and the Emax is 30 to 60%.
Take `Nc1cccc(S(=O)(=O)Nc2nc(-c3ccccc3)c3ccn(-c4ccccc4)c3n2)c1` [Compound 32, 3-Amino-N-(4,7-diphenylpyrrolo[2,3-d]pyrimidin-2-yl)benzenesulfonamide]: the EC50 is less than 1000 nM.
Turning to `Cc1ccc(-n2nc(NS(=O)(=O)c3ccccc3)c3ccc(C(C)(C)C)nc32)cc1` [Compound 44], the concentration for a half-maximal effect (EC50) is less than 1000 nM and the Emax was in the range of 30 to 60%.
As for `O=S(=O)(NC1=Nc2ccccc2C(c2ccccc2)S1)c1ccccc1` (centres unmarked) [Compound 9, N-(4-phenyl-4H-3,1-benzothiazin-2-yl)benzenesulfonamide], the concentration for a half-maximal effect (EC50) fell in the range of 3000 to 30000 nM.
For the compound `COc1cccc(-n2nc(NS(=O)(=O)c3ccccc3)c3ccc(C(C)(C)C)nc32)c1` [Compound 50], the EC50 is less than 1000 nM and the Emax lay in the range of 30 to 60%.
For `Cc1cccc(S(=O)(=O)Nc2nn(-c3c(C)cc(C)cc3C)c3nc(C(C)(C)C)ccc23)c1` [Compound 63], the Emax was less than 30%.
Same read-out and setting: with `Cn1c(NS(=O)(=O)c2ccccc2)nc2ccccc21` [Compound 86] the figure was less than 30%.
For the compound `CC(C)(C)c1ccc2c(NS(=O)(=O)c3ccccc3)nn(-c3ccccc3)c2n1` [Compound 40], the EC50 is less than 1000 nM and the Emax fell in the range of 30 to 60%.
Consider `Cc1cc(C)cc(-n2nc(NS(=O)(=O)c3ccccc3)c3ccc(C(C)(C)C)nc32)c1` [Compound 37, N-[6-tert-Butyl-1-(3,5-dimethylphenyl)pyrazolo[3,4-b]pyridin-3-yl]benzenesulfonamide], for which the EC50 is less than 1000 nM and the Emax fell in the range of 30 to 60%.
On the same counts, the results for `Cc1cc(C)c(Oc2nc3ccccc3nc2NS(=O)(=O)c2ccccc2)c(C)c1` [Compound 13] are 1000 to 3000 nM and 30 to 60%.
For `Cc1cc(C)c(-n2nc(NS(=O)(=O)c3cccc(N)n3)c3ccc(C(C)(C)C)nc32)c(C)c1` [Compound 42] the same measures were 1000 to 3000 nM and 30 to 60%.
As for `CC(C)(O)C1CCc2nc(NS(=O)(=O)c3ccccc3)sc2C1` (centres unmarked) [Compound 21], the Emax is less than 30%.
As to `O=S(=O)(Nc1nc(-c2ccccc2)c2ccn(-c3ccccc3)c2n1)c1ccccc1` [Compound 29, N-(4,7-Diphenylpyrrolo[2,3-d]pyrimidin-2-yl)benzenesulfonamide], the EC50 is less than 1000 nM.
On to `CC(C)C(C)n1nc(NS(=O)(=O)c2ccccc2)c2ccc(C(C)(C)C)nc21` (centres unmarked) [Compound 49], for which the Emax is less than 30%.
As to `Cc1cc(C)c(-n2nc(NS(=O)(=O)c3ccc(N)cc3)c3ccc(C(C)(C)C)nc32)c(C)c1` [Compound 36, 4-Amino-N-[6-tert-butyl-1-(2,4,6-trimethylphenyl)pyrazolo[3,4-b]pyridin-3-yl]benzenesulfonamide], the EC50 lay within 1000 to 3000 nM.
As for `Cc1ccccc1Oc1nc(NS(=O)(=O)c2cnn(C)c2)nc2c1CCCC2(C)C` [Compound 5, N-[8,8-Dimethyl-4-(2-methylphenoxy)-6,7-dihydro-5H-quinazolin-2-yl]-1-methyl-pyrazole-4-sulfonamide], the 50% effective concentration (EC50) lay in the range of 3000 to 30000 nM and the Emax fell in the range of 30 to 60%.
As to `Cc1cc(C)c(-n2nc(NS(=O)(=O)c3cccc(Cl)c3)c3ccc(C(C)(C)C)nc32)c(C)c1` [Compound 62], the Emax was less than 30%.
For the compound `CC(C)(C)C1CCc2nc(NS(=O)(=O)c3ccccc3)ncc2C1` (centres unmarked) [Compound 84], the Emax is less than 30%.
Take `CC(C)(C)c1ccc2c(NS(=O)(=O)c3ccccc3)nn(-c3cccc(Cl)c3)c2n1` [Compound 38, N-[6-tert-butyl-1-(3-chlorophenyl)pyrazolo[3,4-b]pyridin-3-yl]benzenesulfonamide]: the EC50 is less than 1000 nM and the Emax is 30 to 60%.
As for `Cc1cc(C)cc(-c2nc(NS(=O)(=O)c3ccccc3)c3ccc(C(C)(C)C)nc3n2)c1` [Compound 17], the Emax was less than 30%.
In the case of `CCn1nc(NS(=O)(=O)c2ccccc2)c2ccccc21` [Compound 74], the Emax is less than 30%.
On to `C=C(C)c1cnc2c(c1)c(NS(=O)(=O)c1ccccc1)nn2-c1cc(C)cc(C)c1` [Compound 47], for which the 50% effective concentration (EC50) was less than 1000 nM and the Emax lay in the range of 30 to 60%.
On the same counts, the results for `Cc1ccccc1Oc1nc(NS(=O)(=O)c2cnn(C)c2)nc2c1CC(C)(C)CC2` [Compound 3, N-[6,6-Dimethyl-4-(2-methylphenoxy)-7,8-dihydro-5H-quinazolin-2-yl]-1-methyl-pyrazole-4-sulfonamide] are 1000 to 3000 nM and more than 60%.
Regarding `Cc1ccc(-c2nc(NS(=O)(=O)c3ccccc3)c3ccc(C(C)(C)C)nc3n2)c(C)c1` [Compound 18], the Emax is less than 30%.
Consider `Cc1cc(C)c(-n2nc(NS(=O)(=O)c3cccc(N)c3)c3ccc(C(C)(C)C)nc32)c(C)c1` [Compound 61], for which the 50% effective concentration (EC50) was less than 1000 nM and the Emax fell in the range of 30 to 60%.
On the same counts, the results for `Cc1ccccc1-n1nc(NS(=O)(=O)c2ccccc2)c2ccc(C(C)(C)C)nc21` [Compound 45] are less than 1000 nM and 30 to 60%.
`CC(C)n1c(NS(=O)(=O)c2ccccc2)nc2ccccc21` [Compound 85]: the Emax was less than 30%.
`CC(C)(C)c1ccccc1Oc1nc2ccccc2nc1NS(=O)(=O)c1ccccc1` [Compound 10, N-[3-(2-tert-butylphenoxy)quinoxalin-2-yl]benzenesulfonamide]: the EC50 is less than 1000 nM.

These data come from patent US20230373974A1, “MODULATORS OF CYSTIC FIBROSIS TRANSMEMBRANE CONDUCTANCE REGULATOR” (VERTEX PHARMACEUTICALS INCORPORATED, priority 2020, published 2023).
